Entries after “also recorded” stand apart in the source; their conditions may differ. Where no end group is shown, it is not given here. The star is where a group is joined. Myristoyl = CCCCCCCCCCCCCC(=O)*
Key:
ApoE−/− mice [1] = test: Regression of established atheroma, weekly IV injections (Oil Red O en face, aortic root); format: in vivo, mouse; set-up: regression of atherosclerosis compared to PTL060 and untailed 3-MP: dose or concentration left out as unconfirmed
Procedure: For all atherosclerosis work, male ApoE−/− mice, from the age of 6-weeks, were fed with a high fat diet (HFD) consisting 35 kcal % fat, 1.25% cholesterol, and 0.5% cholic acid (Special Diet Services, Essex UK). Aortas were transplanted 2 weeks after starting the HFD, using a sleeve anastomosis technique described previously^11. Briefly, a 5 mm of the segment of the infrarenal donor aorta, flushed with 300 μl of saline containing 50 U of heparin, was transplanted into ApoE−/− recipient abdomen aortas (N=6 per group). Blood flow was confirmed by direct inspection after removal of the clamps. Mice were fed a HFD for 6-12 weeks post-transplantation before the experiment was terminated (Suppl FIG. 1A). To assess prevention of atheroma, mice (n=6 per group) received a single injection of PTL060 or controls by tail vein, and the experiments terminated 1-3 weeks later (Suppl FIG. 1B). For regression experiments, baseline groups (n=6) were fed a HFD to the age of 22 weeks before the mice were sacrificed. Experimental or control groups (n=3-6 per group) received weekly injections by tail vein for 3-6 weeks, beginning at age of 22 weeks before the experiments were terminated when mice were 25-28 weeks old (Suppl FIG. 1C).
Atherosclerotic lesions were evaluated as previously described^11. Simply, the entire length of the aorta was perfused with PBS, dissected using a dissecting microscope, longitudinally opened and stained with Oil Red O (ORO) solution (Sigma, UK) for 30 minutes, before being photographed with a digital camera (DSC-W320, Sony, Japan). The total aortic area and lesional area were measured by using Image J. Aortas from every animal were assessed. To assess lesions in the aortic sinus, hearts were embedded in paraffin, sectioned through the aortic root and incubated with elastin/van Gieson stain using the Accustain™ Elastin Stain kit (Sigma). Sections were examined on an Olympus U-ULH optical microscope (Olympus Optical Co. Ltd, Tokyo, Japan). Atheromatous lesional and total aortic root area was determined using Image-Pro Plus TM software version 4.0 (Media Cybernetics, Silver Spring, USA). At least three random sections were examined from each mouse in all groups.

ApoE−/− mice [2] = test: Regression by weekly adoptive transfer of CD11b+ cells / monocytes pre-incubated with compound; format: in vivo, mouse; details: HFD 16 weeks, weekly IV 6 weeks; monocytes pre-treated 30 minutes, PTL060 100 microM or PTL0GC-1 25 microM
Procedure: In more detail, mechanistic insights: direct effect on monocyte/macrophage phenotype. ApoE−/− mice were fed a high fat diet for 16 weeks (baseline), prior to weekly IV treatment for 6 weeks with monocytes from BL6 mice, pre-treated for 30 minutes with either PTL060 (100 microM) or PTL0GC-1 (actually used at ¼ concentration-25 microM).
Extent of atherosclerosis was explored by en face examination of the surface area of aorta containing plaques using Oil-Red-O
Leukocytes were isolated from the blood of mice aged 8-10 weeks, using anti-CD11b MicroBeads (Miltenyi Biotec Ltd, Surrey, UK) according to manufacturers' instructions. For cell labelling, 2×10^7 CD11b+ cells were incubated with 4×10^−6 M of either PKH26 or PKH2 fluorescent dyes (Sigma, UK) for 5 minutes at 25° C. according to manufacturers' protocols, with the reaction stopped using 1% BSA in PBS followed by three washes. Each recipient mouse received 0.5×10^6 cells by IV injection; in some experiments, the cells were incubated with PTL060 (100 μM in 0.5 mls) or equimolar controls for 30 minutes at room temperature and washed three times before immediate injection. For viability assays, murine bone marrow cells were incubated for 5 days in 6 well plates, counted and re-seeded at 2×10^5 cells/ml in 24 well plates with 25 ng/ml MCSF. […]

C57BL/6 mice [3] = test: Delayed type hypersensitivity, contact sensitivity to oxazolone (ear swelling); format: in vivo, mouse
Procedure: C57BL/6 mice were topically sensitised with oxazolone on the shaved abdomen on day 0. Treatment with either saline, PTL060 (10 mg/g), equimolar PTL0GC-1 or equimolar *3-MP was given on day 3 and day 5, the last immediately prior to re-challenge with oxazolone onto the right ear. The left ear was treated with vehicle alone. On day 6, the difference in swelling of the right and left ears was measured and is presented as D mean ear thickness.
This example uses a model of contact hypersensitivity. Here, mice are challenged on the abdomen with the contact sensitizer oxazolone, before a re-challenge […] on both sides of the ear with oxazolone (on the right) or vehicle alone (on the left).
Swelling of the ears, measured with a micrometer, reflects the influx of monocytes/macrophages and T cells in a typical delayed-type hypersensitivity (DTH) response.
FIG. 19: Model of DTH involving contact sensitivity to oxazolone. WT mice were administered a PAR-1 agonist or antagonist at the point of second exposure to oxazolone, before ear thickness was assessed 24 hours later, and mice sacrificed for immunohistological analysis of cross sections of the affected ears, to determine the proportional area occupied by CD68+ cells (macrophages). *p<0.05. **p<0.01. ***p<0.001

C57BL/6 mice [4] = test: Ischaemia reperfusion injury, acute kidney injury; format: in vivo, mouse; details: 2 doses 7.5 mg/ml
Procedure: In more detail, Model 3: Ischaemia reperfusion injury: PTL0GC-1 induces quicker recovery, associated with reduced fibrosis, post acute kidney injury. Both kidneys of C57BL/6 mice were exposed under recovery anaesthesia, and both renal arteries completely occluded by clamps for 30 minutes, prior to release. 2 doses of PTL0GC-1 (7.5 mg/ml) or saline were administered to the mice immediately prior to clamping, and immediately prior to clamp release. Mice were allowed to recover and then monitored for 3 weeks, prior to euthanasia.

[5] = Aristolochic acid nephropathy (AAN) model of renal fibrosis; format: in vivo; details: vs equimolar PTL060 or pure PAR-1 antagonist

[Myr2]-KSSKSPSKKDDKKPGDK(CO—CH2-S—CH2-CH2-Phe-Cha-Cha-Arg-Lys-Pro-Asn-Asp-Lys-NH2)NH2 (K(Myristoyl)SSKSPSKKDDKKPGDK-NH2; not fully specified (residue 17, N-terminus); also: branched: thioether-linked Phe-Cha-Cha-Arg-Lys-Pro-Asn-Asp-Lys-NH2 on Lys17 side chain) [PTL0GC-1]
regression of atherosclerosis, being confirmed (ApoE−/− mice [1]; ApoE−/− mice, vs equimolar PTL060 or pure PAR-1 antagonist): causes significant regression of atherosclerosis | regression of atherosclerosis compared to PTL060 and untailed 3-MP (ApoE−/− mice [1]; HFD 16 weeks, weekly IV for 6 weeks, equimolar to PTL060): Superior regression | regression after transfer of pre-treated monocytes (ApoE−/− mice [2]): the same degree of regression associated with IV treatment of the same reagents; also recorded: superior regression | DTH response, IP and SC administration (C57BL/6 mice [3]; intraperitoneal or subcutaneous, day 3 and day 5): efficacy of both IP and SC administration; also recorded: can inhibit the DTH response | difference in ear swelling (D mean ear thickness) (C57BL/6 mice [3]; intravenously, day 3 and day 5, equimolar to PTL060 (10 mg/g), vs PTL060 and 3-MP): biggest effect | macrophage infiltration into the skin (C57BL/6 mice [3]; model of DTH): reduced macrophage infiltration into the skin | impact on the AKI (C57BL/6 mice [4]; prior to clamping and prior to clamp release, renal arteries clamped 30 minutes): no impact on the AKI | kidney fibrosis, histological analysis (C57BL/6 mice [4]; 3 weeks): trend towards less fibrosis | renal function (C57BL/6 mice [4]; by 3 weeks): better renal function by 3 weeks | body weight during recovery phase (C57BL/6 mice [4]; monitored 3 weeks): gain weight quicker | development of renal fibrosis, being confirmed [5]: inhibits development of renal fibrosis

From patent publication US20230167155A1, “COMPOSITIONS AND METHODS” (KING'S COLLEGE LONDON, priority 2020, published 2023)
